Laboratory results: article PMC8647499, “Preclinical evaluation of strasseriolides A–D, potent antiplasmodial macrolides isolated from Strasseria geniculata CF-247,251” (Malaria Journal, 2021)
“And” between values parts separate entries of the source, which are not always exact repeats. Equal values may be shown once.

Key:
[1] = test system: mice; test: In vivo toxicity in mice after i.v. injection; details: mouse, in vivo, iv, 25 mg/kg
Procedure: Three Balb/C mice (6–8 weeks old) were intravenously injected with 25 mg/kg of strasseriolide D dissolved in 200 µL of vehicle (0.5%HPMC, 0.5% Tween 80 and 0.5% Benzyl alcohol in water). Blood samples were collected by pricking the […] on the leg of each mouse at time points 1.5 (T 1.5 h), 5 (T 5 h) and 24 h (T 24 h). From the harvested blood, 50 µL plasma were prepared for all the samples and stored at -80 °C until needed. A previously developed LC–MS–MS method (see supporting information) was used to determine the plasma concentration of strasseriolide D as described below.
Similar sample preparation and LC–MS–MS analysis were respectively performed for mice intravenously injected with strasseriolides A and C as test compounds and mice blood samples collected at 30 min (T 30 M), 2 h (T 2 h), 6 h (T 6 h) and 24 h (T 24 h). […] For strasseriolides A, B and C as test compounds; strasseriolides C, D and B were respectively used as internal standards. After LC–MS–MS analysis, the plasma concentration of compound vs. time data was determined for each strasseriolide.
Animals were observed individually at 15, 30 and 60 min after dosing and periodically during the first 24 h for any clinical signs of toxicity or mortality. The toxicity evaluation was carried out by observing behaviour parameters, including the Grimace scale parameters. The mice were sacrificed, and the main organs were examined by visual inspection during autopsy.

[2] = test system: Plasmodium falciparum strain 3D7 whole parasites; design: method as in PMID 32808790; details: in vitro, read-out: IC50 against Plasmodium falciparum strain 3D7; cited from earlier work
[3] = Metabolic stability assay in human liver microsomes; format: in vitro ADME; details: for half-life: pH 7.4, 1 mg/mL protein; for Clearance Category: ranked by CLint
Procedure: Pretreatment of the 96-well ABgen-0765 reaction plates was the same as previously described above. Two microlitres (2 µL) of compounds (previously dissolved in DMSO) were pre-incubated with 98 µL of cofactor/buffer solution (0.1 M phosphate buffer of pH 7.4, 100 mM K3PO4, 3.3 mM MgCl2, 3.3 mM G6P, 1.3 mM NADPH, and 0.4 u/mL G6PDH) at 37 °C for 10 min. The reactions were then initiated by the addition of 100 µL of HLM solution (at final protein concentration of 1 mg/mL), after which they were stopped at pre-determined incubation times of 0, 10, 15, 30, 45 and 60 min by adding 90 µL acetonitrile containing internal LC–MS–MS standards and shaking at 180 Hz. The samples were centrifuged to sediment the protein precipitates and the supernatants were analysed by LC–MS–MS as previously described above. The integration of each analyte (the […]) and internal standard peak area was performed by the Analyst® software version 1.5.2 and used to calculate the percentage of remaining compound at each incubation time. The natural logarithm of the percentage of the remaining parent compound was plotted against the incubation time and used to calculate the half-life by the following equation:
Half-life (T ½ min) = 0.693/k, where k is the slope of a plot of the natural log of the percentage parent compound remaining vs. time.
The intrinsic clearance (CLint) was determined by the equation: CLint
=Ln2/t1/2min∗volumeincubationmL/microsomalproteinmg∗45MPPGL1500ghumanliver/70kghumanbodyweightj
Units for CLint were expressed as mL/min/mg microsomal protein and MPPGL = mg microsomal protein per gram liver.

[4] = test system: transgenic P. berghei line 676m1cl1 (PbGFP-Luccon), ANKA strain; test: In vivo efficacy in P. berghei infected mice (luciferase activity); design: species or system Plasmodium berghei in Swiss Webster female mice; details: for Parasitaemia (Luminescence arbitrary units), Average ± SD: 4 days from 48 h post-infection; for in vivo activity (in words): strasseriolide D 22 mg/kg i.p. (p < 0.01 vs. vehicle), strasseriolide C 50 mg/kg i.p. (not statistically significant); for parasitaemia level lower compared to controls treated with vehicle: strasseriolide D 22 mg/kg i.p., strasseriolide C 50 mg/kg i.p., 4 days
Procedure: In vivo efficacy experiments were performed at the Anti-infectives Screening Core Services facility of the New York University School of Medicine. The transgenic P. berghei line 676m1cl1 parasite (PbGFP-Luccon) expressing the fusion GFP (mutant 3) and firefly luciferase (LucIAV) proteins generated in the reference clone of ANKA strain cl15cy1 was used. Swiss Webster female mice were infected with transgenic P. berghei line 676m1cl1 (PbGFP-Luccon) ANKA-infected 10³ red blood cells. Treatment was then started 48 h post-parasite infection by i.p. dosage of 22 mg/kg of strasseriolide D and 50 mg/kg of strasseriolide C. Vehicle only (PBS 2% methylcellulose, 0.5% Tween 80) and 20 mg/kg chloroquine were used as negative and positive controls. The infected mice were treated for four days, after which luciferase activity of the parasites was quantified 5 to 10 min after i.p. injection of 150 mg/kg D-Luciferin Potassium-salt (Goldbio) dissolved in PBS using an IVIS® Lumina II imager on the fifth day.
The Genedata Screener online application (Genedata AG, Basel, Switzerland) was used to compute IC50 values. The Smart Fit strategy with Hill model was selected as the choice for curve fitting. Where applicable, data are presented as mean ± standard deviation (SD). In Fig. 3, the significant differences between the vehicle controls and test compounds were calculated by the Student’s t test.

Structure (SMILES)	in vivo toxicity / mortality in mice ([1]; Balb/C, 24 h)	in vivo toxicity / mortality in mice [1]	IC50 [2] [nM]	half-life [3] [min]	Clearance Category [3]	Parasitaemia (Luminescence arbitrary units), Average ± SD ([4]; Table S8/Fig. 3B experiment: strasseriolide D 22 mg/kg i.p., chloroquine 20 mg/kg, read day 5, five replicates)	Parasitaemia (Luminescence arbitrary units), single replicates ([4]; Table S8 experiment: strasseriolide D 22 mg/kg i.p., chloroquine 20 mg/kg, individual mice)	in vivo activity (in words) [4]	parasitaemia level lower compared to controls treated with vehicle [4] [%]	Parasitaemia (Luminescence arbitrary units), Average ± SD ([4]; Table S7/Fig. 3A experiment: strasseriolide C 50 mg/kg i.p., chloroquine 20 mg/kg, read day 5, four replicates)
C/C1=C\[C@H](C)[C@@H](O)C[C@@H](O)/C(C)=C/[C@H](C)C[C@@H](C)CC[C@@H]([C@@H](C)C(=O)O)OC(=O)[C@@H](C)C1 [Strasseriolide D, strasseriolide D]	survived until 24 h post-i.v. injection	non-toxic	128	> 60	Low	1.25 × 10^5 ± 1.04 × 10^5 Luminescence arbitrary units	2.56 × 10^4 Luminescence arbitrary units and 6.93 × 10^3 Luminescence arbitrary units	significantly lowered parasitaemia in vivo	70	–
C/C1=C\[C@H](C)C(=O)C[C@@H](O)/C(C)=C/[C@H](C)C[C@@H](C)CC[C@@H]([C@@H](C)C(=O)O)OC(=O)[C@@H](C)C1 [Strasseriolide C, strasseriolide C]	survived until 24 h post-i.v. injection	non-toxic	123	15.9 ± 1.15	Medium	–	–	moderate in vivo activity	30	3.66 × 10^6 ± 2.23 × 10^6 Luminescence arbitrary units
